Source: ChEMBL document CHEMBL5325394, “What We Have Gained from Ibogaine: α3β4 Nicotinic Acetylcholine Receptor Inhibitors as Treatments for Substance Use Disorders” (J Med Chem, 2023)
Where a SMILES comes first, the peptide text is derived from it. Bridges are numbered along the chain shown (N, C = ends).

Assays:
Mu-type opioid receptor = Mu-type opioid receptor (Bos taurus, UniProt P79350); experiment: Displacement of [3H]-DAGO from calf cortex MOR receptor assessed as inhibition constant; assay type: tissue-based
[1] = Displacement of [3H]-DPDPE from calf caudate nucleus DOR receptor assessed as inhibition constant; assay type: tissue-based, Bos taurus
[2] = Displacement of [3H]-GR-65,630 from 5-HT3 receptor in mouse NG-108 cells assessed as inhibition constant; assay type: cell-based; conditions: ng-108 cell
[3] = biological target: T1, Muscarinic acetylcholine receptor M1 (Bos taurus, UniProt Q8WMX0); experiment: Displacement of [3H]-pirenzepine from calf cortex Muscarinic M1 receptor assessed as inhibition constant; assay type: tissue-based
T1 sequence (Q8WMX0 whole entry): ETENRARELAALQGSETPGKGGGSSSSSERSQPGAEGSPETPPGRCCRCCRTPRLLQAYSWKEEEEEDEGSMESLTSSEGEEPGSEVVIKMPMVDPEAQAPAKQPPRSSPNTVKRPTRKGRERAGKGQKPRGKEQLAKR

[4] = biological target: Sigma intracellular receptor 2 (Bos taurus, UniProt Q3MHW7); experiment: Displacement of [3H]-DTG from calf hippocampus sigma 2 receptor assessed as inhibition constant; assay type: tissue-based
[5] = Displacement of [3H]-BTX-B from bovine cortex sodium channel assessed as inhibition constant; assay type: tissue-based, Bos taurus
[6] = Displacement of [3H]-MK801 from bovine cortex NMDA receptor assessed as inhibition constant; assay type: tissue-based, Bos taurus
[7] = Displacement of [3H]-paroxetine from bovine brain stem 5-HT receptor assessed as inhibition constant; assay type: tissue-based, Bos taurus, Brainstem
[8] = biological target: T2, Neuronal acetylcholine receptor; alpha3/beta4 (Homo sapiens, UniProt P30926+P32297); experiment: Antagonist activity at recombinant alpha3beta4 nAChR in HEK293 cells by voltage-clamp based electrophysiological method; assay type: cell-based
[9] = biological target: T3, Neuronal acetylcholine receptor; alpha4/beta2 (Homo sapiens, UniProt P17787+P43681); experiment: Antagonist activity at alpha4beta2 nAChR in HEK293 cells by voltage-clamp based electrophysiological method; assay type: cell-based
[10] = biological target: T2, Neuronal acetylcholine receptor; alpha3/beta4; experiment: Displacement of [3H]Ibogaine from human alpha3beta4 nAChRs expressed in HEK293 cells assessed as inhibition constant incubated for 2 hrs by scintillation counter analysis; assay type: cell-based
[11] = biological target: T2, Neuronal acetylcholine receptor; alpha3/beta4; experiment: Partial agonist activity at alpha3beta4 nAChR in HEK293 cells assessed as reduction in Ca+2 influx by FLIPR assy; assay type: cell-based
[12] = biological target: T3, Neuronal acetylcholine receptor; alpha4/beta2; experiment: Partial agonist activity at alpha4beta2 nAChR in HEK293 cells assessed as reduction in Ca+2 influx by FLIPR assy; assay type: cell-based
[13] = biological target: T4, Neuronal acetylcholine receptor; alpha4/beta2 (Rattus norvegicus, UniProt P09483+P12390); experiment: Binding affinity to rat alpha4beta2 nAChR expressed in HEK cells assessed as inhibition constant measured after 2 hrs in the presence of [3H]epibatidine; assay type: cell-based
[14] = biological target: Neuronal acetylcholine receptor subunit alpha-7 (Rattus norvegicus, UniProt Q05941); experiment: Binding affinity to rat alpha7 nAChR expressed in HEK cells assessed as inhibition constant measured after 2 hrs in the presence of [3H]epibatidine; assay type: cell-based
[15] = biological target: T3, Neuronal acetylcholine receptor; alpha4/beta2; experiment: Antagonist activity at alpha4beta2 nAChR (unknown origin); assay type: protein-complex assay
[16] = biological target: Serotonin 3 (5-HT3) receptor; experiment: Antagonist activity at 5-HT3 receptor (unknown origin); assay type: protein-complex assay, Homo sapiens
Histamine H1 receptor = Histamine H1 receptor (Homo sapiens, UniProt P35367); experiment: Antagonist activity at H1 receptor (unknown origin)
[17] = biological target: T5, Muscarinic acetylcholine receptor M5 (Homo sapiens, UniProt P08912); experiment: Antagonist activity at muscarinic M5 receptor (unknown origin); assay type: functional
T5 sequence (P08912 whole entry): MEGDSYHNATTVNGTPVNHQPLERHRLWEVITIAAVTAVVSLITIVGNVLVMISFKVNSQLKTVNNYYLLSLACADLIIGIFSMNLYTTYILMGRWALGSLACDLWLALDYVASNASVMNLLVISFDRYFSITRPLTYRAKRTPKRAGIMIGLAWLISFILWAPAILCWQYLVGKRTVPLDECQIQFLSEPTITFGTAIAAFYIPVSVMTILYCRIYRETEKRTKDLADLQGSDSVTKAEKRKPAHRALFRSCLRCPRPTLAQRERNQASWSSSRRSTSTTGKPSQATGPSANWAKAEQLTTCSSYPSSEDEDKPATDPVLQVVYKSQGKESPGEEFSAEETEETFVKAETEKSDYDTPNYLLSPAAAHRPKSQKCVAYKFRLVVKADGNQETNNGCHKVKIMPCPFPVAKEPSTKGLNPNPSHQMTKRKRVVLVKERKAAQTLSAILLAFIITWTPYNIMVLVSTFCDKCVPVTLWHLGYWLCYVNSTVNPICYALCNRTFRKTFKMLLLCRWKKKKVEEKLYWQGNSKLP

[18] = biological target: Sigma intracellular receptor 2 (Homo sapiens, UniProt Q5BJF2); experiment: Antagonist activity at sigma 2 receptor (unknown origin)
[19] = biological target: T2, Neuronal acetylcholine receptor; alpha3/beta4; experiment: Inhibition of alpha3beta4 (unknown origin) by electrophysiology assay; assay type: protein-complex assay
[20] = biological target: Neuronal acetylcholine receptor; alpha3/beta2 (Homo sapiens, UniProt P17787+P32297); experiment: Inhibition of nAChR alpha3beta2 (unknown origin) by electrophysiology assay; assay type: protein-complex assay
[21] = biological target: T6, Neuronal acetylcholine receptor subunit alpha-7 (Homo sapiens, UniProt P36544); experiment: Inhibition of nAChR alpha7 (unknown origin) by electrophysiology assay
[22] = biological target: T3, Neuronal acetylcholine receptor; alpha4/beta2; experiment: Inhibition of nAChR alpha4beta2 (unknown origin) by electrophysiology assay; assay type: protein-complex assay
[23] = biological target: Neuronal acetylcholine receptor; alpha3/beta4 (Rattus norvegicus, UniProt P04757+P12392); experiment: Antagonist activity at rat alpha3beta4 nACh receptor expressed in Xenopus oocyte by voltage-clamp based electrophysiological assay; assay type: cell-based
[24] = biological target: Neuronal acetylcholine receptor; alpha3/beta2 (Rattus norvegicus, UniProt P04757+P12390); experiment: Antagonist activity at rat alpha3beta2 nACh receptor expressed in Xenopus oocyte by voltage-clamp based electrophysiological assay; assay type: cell-based
[25] = biological target: T4, Neuronal acetylcholine receptor; alpha4/beta2; experiment: Antagonist activity at rat alpha4beta2 nACh receptor expressed in Xenopus oocyte by voltage-clamp based electrophysiological assay; assay type: cell-based
[26] = biological target: T6, Neuronal acetylcholine receptor subunit alpha-7; experiment: Antagonist activity at human alpha7 nACh receptor expressed in Xenopus oocyte by voltage-clamp based electrophysiological assay; assay type: cell-based
[27] = biological target: T2, Neuronal acetylcholine receptor; alpha3/beta4; experiment: Inhibition of alpha3beta4 nAChRs (unknown origin); assay type: protein-complex assay

T2 sequence (P30926 whole entry): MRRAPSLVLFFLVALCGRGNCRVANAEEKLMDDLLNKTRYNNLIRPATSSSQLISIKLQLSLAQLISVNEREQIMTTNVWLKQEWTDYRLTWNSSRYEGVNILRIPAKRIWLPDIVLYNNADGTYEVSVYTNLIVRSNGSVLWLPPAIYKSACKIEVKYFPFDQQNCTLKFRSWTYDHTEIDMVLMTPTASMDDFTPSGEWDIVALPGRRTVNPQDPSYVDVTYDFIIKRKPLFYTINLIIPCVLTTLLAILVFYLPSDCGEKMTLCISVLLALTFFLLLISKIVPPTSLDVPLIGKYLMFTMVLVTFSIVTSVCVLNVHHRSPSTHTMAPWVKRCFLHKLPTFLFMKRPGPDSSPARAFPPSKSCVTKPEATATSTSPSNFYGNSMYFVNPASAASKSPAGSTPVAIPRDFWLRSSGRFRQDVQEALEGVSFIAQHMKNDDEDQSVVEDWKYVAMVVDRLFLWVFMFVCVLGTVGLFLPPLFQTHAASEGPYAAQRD
T2 sequence (P32297 whole entry): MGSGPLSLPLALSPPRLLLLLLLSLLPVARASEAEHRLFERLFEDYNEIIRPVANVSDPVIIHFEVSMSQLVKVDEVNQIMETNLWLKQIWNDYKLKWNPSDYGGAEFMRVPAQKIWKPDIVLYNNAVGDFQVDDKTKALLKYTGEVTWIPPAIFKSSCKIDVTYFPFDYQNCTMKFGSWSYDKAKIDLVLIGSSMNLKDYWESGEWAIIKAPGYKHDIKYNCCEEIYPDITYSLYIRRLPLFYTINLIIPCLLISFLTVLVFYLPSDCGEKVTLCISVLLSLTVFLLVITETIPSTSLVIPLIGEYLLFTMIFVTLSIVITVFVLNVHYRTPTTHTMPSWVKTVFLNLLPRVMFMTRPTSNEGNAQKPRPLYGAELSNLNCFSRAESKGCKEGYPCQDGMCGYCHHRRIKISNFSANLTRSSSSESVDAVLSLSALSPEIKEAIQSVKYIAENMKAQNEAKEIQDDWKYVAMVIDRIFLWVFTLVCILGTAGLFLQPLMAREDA
T3 sequence (P17787 whole entry): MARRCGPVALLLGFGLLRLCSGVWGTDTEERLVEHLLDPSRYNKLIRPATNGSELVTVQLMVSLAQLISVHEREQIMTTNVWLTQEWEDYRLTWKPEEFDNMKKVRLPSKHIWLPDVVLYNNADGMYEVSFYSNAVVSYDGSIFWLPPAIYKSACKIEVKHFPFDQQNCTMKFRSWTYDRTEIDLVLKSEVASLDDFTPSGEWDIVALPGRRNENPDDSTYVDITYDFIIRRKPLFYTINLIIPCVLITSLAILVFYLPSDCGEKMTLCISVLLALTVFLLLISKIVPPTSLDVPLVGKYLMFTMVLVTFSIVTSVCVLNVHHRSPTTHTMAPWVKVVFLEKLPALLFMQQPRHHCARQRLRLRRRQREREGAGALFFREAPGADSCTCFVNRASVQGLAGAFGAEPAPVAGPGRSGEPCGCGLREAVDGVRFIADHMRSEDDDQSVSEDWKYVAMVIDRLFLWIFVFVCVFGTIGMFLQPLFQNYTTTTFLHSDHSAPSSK
T3 sequence (P43681 whole entry): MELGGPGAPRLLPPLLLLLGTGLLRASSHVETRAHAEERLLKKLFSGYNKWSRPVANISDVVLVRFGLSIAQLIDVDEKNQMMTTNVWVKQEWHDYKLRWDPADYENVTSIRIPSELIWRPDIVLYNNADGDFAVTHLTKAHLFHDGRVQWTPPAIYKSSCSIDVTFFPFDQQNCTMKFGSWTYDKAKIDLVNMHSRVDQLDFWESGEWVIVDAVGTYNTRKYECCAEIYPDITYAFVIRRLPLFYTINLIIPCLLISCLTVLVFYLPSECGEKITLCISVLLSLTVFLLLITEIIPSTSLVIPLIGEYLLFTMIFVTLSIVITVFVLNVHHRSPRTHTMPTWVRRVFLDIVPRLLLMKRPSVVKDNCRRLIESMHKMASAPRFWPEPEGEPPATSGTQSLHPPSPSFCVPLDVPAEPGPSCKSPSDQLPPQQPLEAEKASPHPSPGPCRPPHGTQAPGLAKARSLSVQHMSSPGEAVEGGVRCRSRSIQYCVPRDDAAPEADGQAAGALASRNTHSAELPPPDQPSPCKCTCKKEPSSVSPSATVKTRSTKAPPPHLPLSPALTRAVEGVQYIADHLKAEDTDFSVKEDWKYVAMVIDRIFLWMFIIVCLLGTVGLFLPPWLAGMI
T4 sequence (P09483 whole entry): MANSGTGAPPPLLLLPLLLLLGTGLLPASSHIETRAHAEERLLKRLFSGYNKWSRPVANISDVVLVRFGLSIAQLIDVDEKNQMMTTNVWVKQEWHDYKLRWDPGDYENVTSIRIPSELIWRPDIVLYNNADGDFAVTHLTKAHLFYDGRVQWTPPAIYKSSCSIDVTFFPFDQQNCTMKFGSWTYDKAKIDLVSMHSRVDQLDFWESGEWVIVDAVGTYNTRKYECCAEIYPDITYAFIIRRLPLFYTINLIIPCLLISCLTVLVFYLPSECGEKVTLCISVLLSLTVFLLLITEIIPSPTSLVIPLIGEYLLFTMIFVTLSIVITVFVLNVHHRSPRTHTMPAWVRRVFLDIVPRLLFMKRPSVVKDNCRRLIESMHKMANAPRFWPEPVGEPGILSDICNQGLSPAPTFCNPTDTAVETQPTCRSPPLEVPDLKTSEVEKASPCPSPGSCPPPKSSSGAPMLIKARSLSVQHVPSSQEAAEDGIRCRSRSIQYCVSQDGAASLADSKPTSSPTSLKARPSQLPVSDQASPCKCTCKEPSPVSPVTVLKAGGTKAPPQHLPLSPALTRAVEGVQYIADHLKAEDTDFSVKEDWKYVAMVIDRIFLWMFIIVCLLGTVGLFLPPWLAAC
T4 sequence (P12390 whole entry): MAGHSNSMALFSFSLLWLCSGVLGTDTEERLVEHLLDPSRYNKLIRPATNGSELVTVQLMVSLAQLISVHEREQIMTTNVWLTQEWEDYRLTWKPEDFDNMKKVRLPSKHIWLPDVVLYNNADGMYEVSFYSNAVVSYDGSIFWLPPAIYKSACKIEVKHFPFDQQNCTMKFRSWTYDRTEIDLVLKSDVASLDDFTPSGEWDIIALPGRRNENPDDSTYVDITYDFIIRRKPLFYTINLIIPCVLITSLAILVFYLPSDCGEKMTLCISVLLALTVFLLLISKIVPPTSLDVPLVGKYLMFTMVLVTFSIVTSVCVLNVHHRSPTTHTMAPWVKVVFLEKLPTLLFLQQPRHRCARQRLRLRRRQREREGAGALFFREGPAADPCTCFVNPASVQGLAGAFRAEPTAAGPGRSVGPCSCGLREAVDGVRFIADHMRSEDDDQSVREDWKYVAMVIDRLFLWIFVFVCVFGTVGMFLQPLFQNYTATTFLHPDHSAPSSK
T6 sequence (P36544 whole entry): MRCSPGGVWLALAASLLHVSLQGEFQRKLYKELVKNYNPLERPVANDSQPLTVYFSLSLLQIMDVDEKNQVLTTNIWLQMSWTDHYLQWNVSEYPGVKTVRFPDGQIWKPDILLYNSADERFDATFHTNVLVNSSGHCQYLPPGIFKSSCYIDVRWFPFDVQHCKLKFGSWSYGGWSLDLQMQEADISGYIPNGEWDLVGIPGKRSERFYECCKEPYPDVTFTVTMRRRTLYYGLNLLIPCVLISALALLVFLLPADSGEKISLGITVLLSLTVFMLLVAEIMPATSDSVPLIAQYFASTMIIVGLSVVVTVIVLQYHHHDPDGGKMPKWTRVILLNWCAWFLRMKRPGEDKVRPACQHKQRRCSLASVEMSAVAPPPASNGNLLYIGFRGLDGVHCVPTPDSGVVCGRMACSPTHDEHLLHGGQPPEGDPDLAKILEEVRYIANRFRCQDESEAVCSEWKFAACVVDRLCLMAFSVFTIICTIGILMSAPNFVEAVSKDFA
Sequence of Neuronal acetylcholine receptor subunit alpha-7 (Rattus norvegicus, UniProt Q05941) (Q05941 whole entry): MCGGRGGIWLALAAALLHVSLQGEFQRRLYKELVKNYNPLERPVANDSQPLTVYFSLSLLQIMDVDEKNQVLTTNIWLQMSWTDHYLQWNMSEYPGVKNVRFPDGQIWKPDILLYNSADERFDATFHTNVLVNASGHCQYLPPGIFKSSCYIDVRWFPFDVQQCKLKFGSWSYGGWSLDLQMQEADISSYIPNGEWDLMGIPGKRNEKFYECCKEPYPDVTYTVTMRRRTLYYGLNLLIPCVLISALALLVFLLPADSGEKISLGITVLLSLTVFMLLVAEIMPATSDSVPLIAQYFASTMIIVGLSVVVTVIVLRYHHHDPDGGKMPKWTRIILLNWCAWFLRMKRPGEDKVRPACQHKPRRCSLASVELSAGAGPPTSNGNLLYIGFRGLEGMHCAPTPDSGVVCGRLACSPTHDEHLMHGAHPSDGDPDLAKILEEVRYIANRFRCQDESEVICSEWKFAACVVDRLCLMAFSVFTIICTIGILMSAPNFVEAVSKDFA
Sequence of Mu-type opioid receptor (P79350 whole entry): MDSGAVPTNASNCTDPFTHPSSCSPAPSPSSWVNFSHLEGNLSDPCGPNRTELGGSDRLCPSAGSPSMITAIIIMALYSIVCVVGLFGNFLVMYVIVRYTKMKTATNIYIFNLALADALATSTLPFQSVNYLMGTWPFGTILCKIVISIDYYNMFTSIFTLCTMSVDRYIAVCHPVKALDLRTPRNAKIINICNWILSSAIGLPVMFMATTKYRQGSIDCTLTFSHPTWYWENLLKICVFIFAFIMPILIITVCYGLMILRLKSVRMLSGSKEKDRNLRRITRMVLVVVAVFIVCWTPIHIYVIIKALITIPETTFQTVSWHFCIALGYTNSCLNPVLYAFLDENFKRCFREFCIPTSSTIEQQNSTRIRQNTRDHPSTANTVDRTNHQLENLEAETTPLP
Sequence of Sigma intracellular receptor 2 (Bos taurus, UniProt Q3MHW7) (Q3MHW7 whole entry): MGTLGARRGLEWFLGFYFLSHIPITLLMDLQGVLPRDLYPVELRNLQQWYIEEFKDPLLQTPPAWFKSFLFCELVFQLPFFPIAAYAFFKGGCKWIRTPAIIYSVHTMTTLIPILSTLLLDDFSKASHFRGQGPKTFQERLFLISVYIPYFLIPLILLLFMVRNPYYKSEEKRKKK
Sequence of Neuronal acetylcholine receptor; alpha3/beta2 (Homo sapiens, UniProt P17787+P32297) (P17787 whole entry): as the sequence (P17787 whole entry) above
Sequence of Neuronal acetylcholine receptor; alpha3/beta2 (Homo sapiens, UniProt P17787+P32297) (P32297 whole entry): as the sequence (P32297 whole entry) above

In the case of `CC[C@H]1C[C@@H]2C[C@H]3c4[nH]c5ccc(OC)cc5c4CC[N@@](C2)[C@@H]13`, the Ki (Mu-type opioid receptor) is reported as 2 nM, the Ki [1] is reported as > 10 nM and the Ki [2] is reported as 2.6 nM. For the same molecule, the Ki [3] was 16 nM, the Ki [4] was 0.4 nM and the Ki [5] was 3.6 nM. For the same molecule, the Ki [6] was 3.1 nM, the Ki [7] was 4.1 nM and the IC50 [8] was 220 nM. It also gave an IC50 [9] of 1000 nM and a Ki [10] of 1.05 nM.
In the case of `FC(F)(F)c1ccc2c(c1)[C@@H]1CNC[C@H]2C1`, the IC50 [11] is reported as 260 nM and the IC50 [12] is reported as 110 nM.
`CN1C2CCCC1CC(Nc1ccccc1Br)C2` (centres undefined) showed a Ki [13] of 477 nM, a Ki [14] of 222 nM and an IC50 [15] of 300 nM. It also gave an IC50 [16] of 600 nM, an IC50 (Histamine H1 receptor) of 201 nM and an IC50 [17] of 325 nM. The IC50 [18] was 418 nM.
With `C[C@@H]1NC(=O)[C@H](Cc2ccccc2)NC(=O)[C@@H]2CSSC[C@H](NC(=O)CN)C(=O)N[C@@H](CSSC[C@@H](C(N)=O)NC(=O)[C@H](CC(=O)O)NC(=O)[C@@H]3CCCN3C(=O)[C@H](CC(N)=O)NC(=O)[C@H]([C@@H](C)O)NC1=O)C(=O)N[C@@H](CO)C(=O)N[C@@H](Cc1ccc(O)cc1)C(=O)N1CCC[C@H]1C(=O)N1CCC[C@H]1C(=O)N2` the IC50 [19] was 770 nM, the IC50 [20] was > 100000 nM and the IC50 [21] was > 100000 nM. For the same molecule, the IC50 [22] was > 100000 nM.
In the case of `CC[C@H](C)[C@H](NC(=O)[C@H](Cc1cnc[nH]1)NC(=O)[C@@H]1CCCN1C(=O)[C@H](CC(N)=O)NC(=O)[C@H](CC(N)=O)NC(=O)[C@@H](NC(=O)[C@H](CC(N)=O)NC(=O)[C@H](CS)NC(=O)[C@H](C)NC(=O)[C@@H]1CCCN1C(=O)[C@H](Cc1cnc[nH]1)NC(=O)[C@H](CO)NC(=O)[C@H](CS)NC(=O)[C@H](CS)NC(=O)CN)C(C)C)C(=O)N[C@@H](CS)C(=O)O` (H-GCCSHPACNVNNPHIC-OH), the IC50 [23] is reported as 97 nM, the IC50 [24] is reported as 33 nM and the IC50 [25] is reported as > 100000 nM. For the same molecule, the IC50 [26] was 103 nM.
Molecule `CC(C)C[C@@H]1NC(=O)[C@H](C(C)C)NC(=O)[C@H](C)NC(=O)[C@@H]2CSSC[C@H](NC(=O)CN)C(=O)N[C@@H](CSSC[C@@H](C(=O)O)NC(=O)[C@H](Cc3ccc(O)cc3)NC1=O)C(=O)N[C@@H](CO)C(=O)N[C@@H]([C@@H](C)O)C(=O)N1CCC[C@H]1C(=O)N1CCC[C@H]1C(=O)N2` (H-GCCSTPPCAVLYC-OH; disulfide 2-8, 3-13) has an IC50 [27] of 27.7 nM.
